# Test results from the supplement of paper PMC11061612.
# What was measured:
# Test in all cases: Bliss excess, mean over the matrix (fraction); higher = more synergy
# [1] = system: AMO-1 (Plasma Cell Myeloma)
# Summary of the method: (§1)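 After 24 hours at 37°C and 5% CO2 in 1536-well plates, cells in DMEM/F12 or RPMI plus 10% FBS received two-drug dose matrices for 72 hours. Viability came from CellTiter-Glo 2.0 luminescence and was scaled as inhibition, anchored at 0 by vehicle wells and at 1 by blank wells. Combination Emax is taken as the second-highest inhibition in the matrix, and Bliss excess as the observed combination effect less EA + EB − EA·EB, with EA and EB the single-agent effects.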
# [2] = system: BT-549 (Breast Carcinoma)
# Summary of the method: as §1
# [3] = system: C-4-I (Cervical Carcinoma)
# Summary of the method: as §1
# D-263MG (Glioblastoma) = system: D-263MG (Glioblastoma)
# Summary of the method: as §1
# [4] = system: EFM-19 (Breast Carcinoma)
# Summary of the method: as §1
# [5] = system: HSC-4 (Oral Cavity Carcinoma)
# Summary of the method: as §1
# [6] = system: Hs-766T (Pancreatic Carcinoma)
# Summary of the method: as §1
# [7] = system: KARPAS-299 (T-Cell Non-Hodgkin's Lymphoma)
# Summary of the method: as §1
# [8] = system: KYSE-450 (Esophageal Squamous Cell Carcinoma)
# Summary of the method: as §1
# [9] = system: LU-65 (Non-Small Cell Lung Carcinoma)
# Summary of the method: as §1
# [10] = system: MLMA (Other Blood Carcinomas)
# Summary of the method: as §1
# [11] = system: NCI-H1915 (Non-Small Cell Lung Carcinoma)
# Summary of the method: as §1
# [12] = system: NCI-H727 (Other Solid Carcinomas)
# Summary of the method: as §1
# [13] = system: OE19 (Esophageal Adenocarcinoma)
# Summary of the method: as §1
# [14] = system: OSC-20 (Oral Cavity Carcinoma)
# Summary of the method: as §1
# [15] = system: OVCAR-4 (Ovarian Carcinoma)
# Summary of the method: as §1
# [16] = system: SCC-15 (Oral Cavity Carcinoma)
# Summary of the method: as §1
# [17] = system: SW13 (Other Solid Carcinomas)
# Summary of the method: as §1
# TGW (Neuroblastoma) = system: TGW (Neuroblastoma)
# Summary of the method: as §1
# UACC-62 (Melanoma) = system: UACC-62 (Melanoma)
# Summary of the method: as §1
Structure (SMILES),Bliss excess [1],Bliss excess [2],Bliss excess [3],Bliss excess (D-263MG (Glioblastoma)),Bliss excess [4],Bliss excess [5],Bliss excess [6],Bliss excess [7],Bliss excess [8],Bliss excess [9],Bliss excess [10],Bliss excess [11],Bliss excess [12],Bliss excess [13],Bliss excess [14],Bliss excess [15],Bliss excess [16],Bliss excess [17],Bliss excess (TGW (Neuroblastoma)),Bliss excess (UACC-62 (Melanoma))
"COc1cccc(OCCCN)c1-c1cc(Nc2cnc(C#N)cn2)n[nH]1 [Prexasertib] + Cc1cc2ncnn2cc1Nc1ncc2c(n1)n(C1CCOCC1)c(=O)n2C [AZD7648] (first compound max 1 µM, 7x7, partner max 10 µM)",-0.004,-0.0341,0.0005,-0.0394,-0.0676,-0.0421,0.0183,-0.0226,-0.0017,-0.0099,-0.0204,-0.008,-0.022,-0.0291,0.0115,-0.0739,-0.0065,0.0009,-0.0512,-0.0125
"COc1cccc(OCCCN)c1-c1cc(Nc2cnc(C#N)cn2)n[nH]1 [Prexasertib] + O=C(c1cc(Cc2n[nH]c(=O)c3ccccc23)ccc1F)N1CCN(C(=O)C2CC2)CC1 [Olaparib] (first compound max 1 µM, 7x7, partner max 10 µM)",-0.0584,0.0195,-0.0783,-0.0665,-0.0094,0.029,-0.032,-0.0318,-0.025,-0.0678,-0.0442,-0.0002,-0.259,-0.125,-0.013,-0.0589,0.0242,0.0024,-0.0665,-0.0183
"CCc1c2c(nc3ccc(O)cc13)-c1cc3c(c(=O)n1C2)COC(=O)[C@]3(O)CC [SN-38] + CN(C)CCCOc1ccc(-c2ccc3ncc4c(c3c2)n(C2CCOCC2)c(=O)n4C)cn1 [AZD0156] (first compound max 0.3 µM, 7x7, partner max 1 µM)",-0.103,-0.0888,0.115,0.0701,-0.064,-0.0346,-0.0147,0.071,0.0937,-0.0148,-0.0501,-0.0563,-0.006,0.159,-0.0083,-0.0149,0.0092,0.0279,0.0047,0.0077
"Cn1cnc2c(F)c(Nc3ccc(Br)cc3Cl)c(C(=O)NOCCO)cc21 [Selumetinib] + C=CCn1c(=O)c2cnc(Nc3ccc(N4CCN(C)CC4)cc3)nc2n1-c1cccc(C(C)(C)O)n1 [AZD1775] (first compound max 10 µM, partner max 1 µM)",-0.0108,-0.0578,0.0083,-0.0567,-0.0121,-0.041,-0.0559,0.0463,-0.037,0.0065,-0.0257,-0.0462,-0.0891,-0.132,-0.019,-0.0698,-0.075,-0.0576,-0.0219,-0.0006
"Cn1cnc2c(F)c(Nc3ccc(Br)cc3Cl)c(C(=O)NOCCO)cc21 [Selumetinib] + CC(C)n1c(=O)n(C)c2cnc3cc(F)c(-c4ccc(OCCCN5CCCCC5)nc4)cc3c21 [AZD1390] (first compound max 10 µM, 7x7, partner max 0.3 µM)",0.0291,-0.0438,-0.0078,-0.0352,-0.0264,-0.085,-0.0215,0.0285,-0.0416,0.0027,-0.0186,-0.061,-0.0229,-0.0326,-0.0269,-0.0512,-0.0462,0.0129,-0.0393,-0.0092
"Cn1cnc2c(F)c(Nc3ccc(Br)cc3Cl)c(C(=O)NOCCO)cc21 [Selumetinib] + CCN(CCO)CCCOc1ccc2c(Nc3cc(CC(=O)Nc4cccc(F)c4)[nH]n3)ncnc2c1 [AZD2811] (first compound max 10 µM, 7x7, partner max 1 µM)",0.0538,-0.0216,0.0582,-0.0385,0.0054,-0.0442,-0.0659,0.0227,-0.0117,-0.0082,-0.026,-0.038,-0.0389,-0.0015,-0.0115,-0.0468,-0.0377,-0.0919,-0.026,-0.0289
"Cn1cnc2c(F)c(Nc3ccc(Br)cc3Cl)c(C(=O)NOCCO)cc21 [Selumetinib] + C[C@@H]1COCCN1C2=NC(=NC(=C2)C3(CC3)[S@](=N)(=O)C)C4=C5C=CNC5=NC=C4 [AZD6738] (first compound max 10 µM, 7x7, partner max 10 µM)",-0.0261,-0.0936,0.0615,-0.03,-0.0188,0.0345,-0.0794,-0.013,0.0046,-0.0244,-0.106,-0.0264,0.0201,-0.049,-0.0613,0.0169,-0.0142,0.0113,-0.0288,0.063
"CC(=O)Nc1cccc(-n2c(=O)n(C3CC3)c(=O)c3c(Nc4ccc(I)cc4F)n(C)c(=O)c(C)c32)c1 [Trametinib] + Cc1nc(-c2cn3c(n2)-c2ccc(-c4cnn(C(C)(C)C(N)=O)c4)cc2OCC3)n(C(C)C)n1 [Taselisib] (first compound max 1 µM, 7x7, partner max 10 µM)",0.316,0.0203,0.229,0.132,-0.0544,0.105,0.0113,0.25,0.11,0.0994,-0.036,0.045,-0.0129,0.158,0.0925,0.104,0.171,0.316,0.085,-0.0422
"CC1(C)CCC(CN2CCN(c3ccc(C(=O)NS(=O)(=O)c4ccc(NCC5CCOCC5)c([N+](=O)[O-])c4)c(Oc4cnc5[nH]ccc5c4)c3)CC2)=C(c2ccc(Cl)cc2)C1 [Venetoclax] + C1CN(CCC1(C(=O)N[C@@H](CCO)C2=CC=C(C=C2)Cl)N)C3=NC=NC4=C3C=CN4 [Capivasertib] (first compound max 1 µM, 7x7, partner max 3 µM)",-0.0267,-0.0385,-0.0099,-0.0151,-0.0925,-0.0281,-0.0635,-0.0004,-0.0296,-0.0377,-0.0425,-0.0362,-0.0539,-0.016,-0.0354,-0.0393,-0.0639,-0.0238,-0.0211,-0.0238
"CC1(C)CCC(CN2CCN(c3ccc(C(=O)NS(=O)(=O)c4ccc(NCC5CCOCC5)c([N+](=O)[O-])c4)c(Oc4cnc5[nH]ccc5c4)c3)CC2)=C(c2ccc(Cl)cc2)C1 [Venetoclax] + C=CCn1c(=O)c2cnc(Nc3ccc(N4CCN(C)CC4)cc3)nc2n1-c1cccc(C(C)(C)O)n1 [AZD1775] (first compound max 1 µM, partner max 1 µM)",0.0861,-0.0152,-0.0535,0.0494,-0.0335,-0.0205,-0.0049,0.008,-0.0642,0.041,0.0421,-0.009,0.0475,-0.0932,-0.0522,0.0002,-0.0159,0.0496,-0.0261,0.0405
"CC1(C)CCC(CN2CCN(c3ccc(C(=O)NS(=O)(=O)c4ccc(NCC5CCOCC5)c([N+](=O)[O-])c4)c(Oc4cnc5[nH]ccc5c4)c3)CC2)=C(c2ccc(Cl)cc2)C1 [Venetoclax] + CCN(CCO)CCCOc1ccc2c(Nc3cc(CC(=O)Nc4cccc(F)c4)[nH]n3)ncnc2c1 [AZD2811] (first compound max 1 µM, 7x7, partner max 1 µM)",0.0249,-0.0111,0.0484,0.0431,0.0005,-0.0694,-0.0372,0.0871,-0.0215,-0.0556,-0.0633,0.0163,-0.0795,-0.0176,-0.0372,0.0264,-0.0051,0.0311,-0.011,-0.0027
"CC1(C)CCC(CN2CCN(c3ccc(C(=O)NS(=O)(=O)c4ccc(NCC5CCOCC5)c([N+](=O)[O-])c4)c(Oc4cnc5[nH]ccc5c4)c3)CC2)=C(c2ccc(Cl)cc2)C1 [Venetoclax] + CN(C)CCCOc1ccc(-c2ccc3ncc4c(c3c2)n(C2CCOCC2)c(=O)n4C)cn1 [AZD0156] (first compound max 1 µM, 7x7, partner max 1 µM)",-0.0122,-0.0049,0.0229,0.0045,-0.0184,-0.0392,-0.0841,0.0353,-0.0795,0.0173,0.0062,-0.018,-0.0499,-0.0861,-0.0304,-0.0338,-0.0146,0.027,-0.0245,0.0254
"CC1(C)CCC(CN2CCN(c3ccc(C(=O)NS(=O)(=O)c4ccc(NCC5CCOCC5)c([N+](=O)[O-])c4)c(Oc4cnc5[nH]ccc5c4)c3)CC2)=C(c2ccc(Cl)cc2)C1 [Venetoclax] + COc1cc(Nc2ncc3c(n2)-c2ccc(Cl)cc2C(c2c(F)cccc2OC)=NC3)ccc1C(=O)O [Alisertib] (first compound max 1 µM, 7x7, partner max 10 µM)",-0.0586,0.0371,-0.0158,0.0522,-0.0049,-0.0528,-0.0765,0.134,0.007,-0.0164,-0.046,-0.0072,-0.0707,-0.059,-0.051,-0.0215,-0.0257,0.0421,0.0858,0.01
"CC1(C)CCC(CN2CCN(c3ccc(C(=O)NS(=O)(=O)c4ccc(NCC5CCOCC5)c([N+](=O)[O-])c4)c(Oc4cnc5[nH]ccc5c4)c3)CC2)=C(c2ccc(Cl)cc2)C1 [Venetoclax] + C[C@@H]1COCCN1C2=NC(=NC(=C2)C3(CC3)[S@](=N)(=O)C)C4=C5C=CNC5=NC=C4 [AZD6738] (first compound max 1 µM, 7x7, partner max 10 µM)",-0.0355,-0.0331,-0.0398,0.0199,-0.0814,-0.0509,-0.0596,-0.0328,-0.061,-0.1,-0.0275,-0.0084,-0.0801,-0.0691,-0.0599,-0.0384,-0.06,0.0075,-0.0202,-0.0196
